From patent US20080070954A1, “Acylurea Connected And Sulfonylurea Connected Hydroxamates” (S*BIO PTE LTD., priority 2003, published 2008)

Experiments:
[1] = target: T1, HDAC8 enzyme (recombinant GST-HDAC8) (Homo sapiens, UniProt Q9BY41); assay: In vitro HDAC assay for determination of IC50 values (BIOMOL fluorescent-based), HDAC8; format: biochemical; conditions: 500 nM HDAC8 enzyme, 200 μM Flur de lys p53 peptide substrate, 2 h room temperature
T1 construct: Amplification of human HDAC1 and HDAC8 coding region from this cDNA library; made in house; host or cells: SF9 insect cells (baculovirus, pFASTBAC vector)
T1 sequence (Q9BY41 1-377): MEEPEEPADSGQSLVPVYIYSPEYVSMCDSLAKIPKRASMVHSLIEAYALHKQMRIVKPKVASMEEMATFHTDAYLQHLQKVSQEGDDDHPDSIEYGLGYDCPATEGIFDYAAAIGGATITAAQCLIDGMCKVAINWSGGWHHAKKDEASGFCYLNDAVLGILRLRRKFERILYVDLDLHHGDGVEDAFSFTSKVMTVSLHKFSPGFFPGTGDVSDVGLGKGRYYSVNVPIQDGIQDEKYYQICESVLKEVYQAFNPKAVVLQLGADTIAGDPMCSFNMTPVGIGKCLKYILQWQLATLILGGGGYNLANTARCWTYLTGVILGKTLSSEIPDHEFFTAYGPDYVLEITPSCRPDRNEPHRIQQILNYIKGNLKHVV
Description: Human cDNA library was prepared using cultured SW620 cells. Amplification of human HDAC1 and HDAC8 coding region from this cDNA library was cloned separately into the baculovirus expression pDEST20 vector and pFASTBAC vector respectively (GATEWAY Cloning Technology, Invitrogen Pte Ltd). […] Recombinant baculovirus was prepared using the Bac-To-Bac method following the manufacturer's instruction (Invitrogen Pte Ltd).
(§1) Expression of GST-HDAC1 or HTGST-HDAC8 was done by infecting SF9 cells (Invitrogen Pte Ltd) with pDEST20-HDAC1 or pFASTBAC-GST-HDAC8 baculovirus at MOI=1 for 48 h. Soluble cell lysate was incubated with pre-equilibrated Glutathione Sepharose 4B beads (Amersham) at 4° C. for 2 h. The beads were washed with PBS buffer for 3 times. The GST-HDAC1 protein or GST-HDAC8 protein was eluted by elution buffer containing 50 mM Tris, pH8.0, 150 mM NaCl, 1% Triton X-100 and 10 mM or 20 mM reduced Glutathione. The purified GST-HDAC1 protein or purified GST-HDAC8 protein was dialyzed with HDAC storage buffer containing 10 mM Tris, pH7.5, 100 mM NaCl and 3 mM MgCl2. 20% Glycerol was added to purified GST-HDAC1 protein or purified GST-HDAC8 before storage at −80° C.
The assay has been carried out in 96 well format and the BIOMOL fluorescent-based HDAC activity assay has been applied. […] Flur de lys Developer was added and the reaction was incubated for 10 min. Briefly, deacetylation of the substrate sensitizes it to the developer, which then generates a fluorophore. The fluorophore is excited with 360 nm light and the emitted light (460 nm) is detected on a fluorometric plate reader (Tecan Ultra Microplate detection system, Tecan Group Ltd.).
(§2) The analytical software, Prism 3.0® (GraphPad Software Inc) has been used to generate IC50 from a series of data.

[2] = system: Ramos Burkitt-lymphoma cells; assay: Apoptosis assay (Annexin V / PI staining, FACS); format: cell-based; conditions: 48 hr after treatment with 10 μM
Text: In various therapies such as for proliferative disorders like cancer, the selective induction of apoptosis in proliferating cells such as tumor cells is one of the desirable approaches, and can be mediated by treatment with various anti-proliferative compounds [Blagosklonny M V, Oncogene, 23(16): 2967 (2004); Kaufmann and Earnshaw, Exp Cell Res. 256(1): 42-9 (2000)]. Programmed cell death or apoptosis is the cellular response to stress factors such as DNA damage introduced during conventional anti-cancer treatment. The concerted sequence of events during apoptosis, clearly differentiate this pathway from a non-coordinated form of cell death called necrosis. During the course of apoptosis, characteristic phenotypical cellular changes occur, which include the condensation of chromatin, the shrinkage of cells and finally the fragmentation of chromosomal DNA. One of the very early changes caused by apoptotic events occurs in the phospholipids bilayer of the plasma membrane. The phospholipid phosphatidylserine is translocated from the inner to the outer side of the plasma-membrane and, as a result, is exposed to the extracellular space. One way of detecting early apoptotic cells is to determine the amount of phosphatidyl-serine at the extracellular side of the plasma-membrane which is accomplished by the standard flow cytometric method of Annexin V staining. […]

[3] = target: T2, HDAC1 enzyme (recombinant GST-HDAC1) (Homo sapiens, UniProt Q13547); assay: In vitro HDAC assay for determination of IC50 values (BIOMOL fluorescent-based), HDAC1; format: biochemical; conditions: 600 nM HDAC1 enzyme, 500 μM Flur de lys generic substrate, 2 h room temperature
T2 construct: Amplification of human HDAC1 and HDAC8 coding region from this cDNA library; made in house; host or cells: SF9 insect cells (baculovirus, pDEST20 vector)
T2 sequence (Q13547 whole entry): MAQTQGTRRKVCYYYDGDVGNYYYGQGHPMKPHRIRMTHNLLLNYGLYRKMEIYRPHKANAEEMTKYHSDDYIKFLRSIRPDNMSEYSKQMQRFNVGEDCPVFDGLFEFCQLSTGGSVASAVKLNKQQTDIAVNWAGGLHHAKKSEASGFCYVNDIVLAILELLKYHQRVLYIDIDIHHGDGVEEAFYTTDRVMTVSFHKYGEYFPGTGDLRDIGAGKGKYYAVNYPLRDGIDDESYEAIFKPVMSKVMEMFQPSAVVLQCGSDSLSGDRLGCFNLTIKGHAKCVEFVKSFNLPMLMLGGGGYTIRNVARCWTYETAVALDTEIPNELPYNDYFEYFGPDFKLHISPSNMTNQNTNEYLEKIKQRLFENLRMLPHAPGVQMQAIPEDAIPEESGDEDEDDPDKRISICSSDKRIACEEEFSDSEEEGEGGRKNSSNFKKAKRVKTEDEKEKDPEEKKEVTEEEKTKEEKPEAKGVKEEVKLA
Description: Human cDNA library was prepared using cultured SW620 cells. Amplification of human HDAC1 and HDAC8 coding region from this cDNA library was cloned separately into the baculovirus expression pDEST20 vector and pFASTBAC vector respectively (GATEWAY Cloning Technology, Invitrogen Pte Ltd). The pDEST20-HDAC1 and pFASTBAC-HTGST-HDAC8 constructs were confirmed by DNA sequencing. Recombinant baculovirus was prepared using the Bac-To-Bac method following the manufacturer's instruction (Invitrogen Pte Ltd). Baculovirus titer was determined by plaque assay to be about 10^8 PFU/ml.
as §1
The assay has been carried out in 96 well format and the BIOMOL fluorescent-based HDAC activity assay has been applied. The reaction composed of assay buffer, containing 25 mM Tris pH 7.5, 137 mM NaCl, 2.7 mM KCl, 1 mM MgCl2, 1 mg/ml BSA, tested compounds, 500 nM HDAC8 enzyme or 600 nM HDAC1 enzyme, 200 μM Flur de lys p53 peptide substrate for HDAC8 enzyme or 500 μM Flur de lys generic substrate for HDAC1 enzyme and subsequently was incubated at room temperature for 2 h. Flur de lys Developer was added and the reaction was incubated for 10 min. Briefly, deacetylation of the substrate sensitizes it to the developer, which then generates a fluorophore. The fluorophore is excited with 360 nm light and the emitted light (460 nm) is detected on a fluorometric plate reader (Tecan Ultra Microplate detection system, Tecan Group Ltd.).
as §2

[4] = system: acetylated histone H2A in Colo205 cells; assay: Histone acetylation assay (western blot), histone H2A; format: cell-based, human; set-up: key: “Active” means accumulation of acetylated histone was observed when compared with control (without compound); conditions: Colo205 cells, 0.1, 1, 5 and 10 μM, 24 h
Description: (§3) A hallmark of histone deacetylase (HDAC) inhibition is the increase in the acetylation level of histones. Histone acetylation, including H3, H4, H2A and H2B can be detected by immuno-blotting (western-blot). Colo205 cells, approximately 1.5×10^6 cells/10 cm dish, were seeded in the previously described medium, cultivated for 24 h and subsequently treated with HDAC inhibitory agents at 0.1, 1, 5 and 10 μM final concentration. After 24 h, cells were harvested and lysed according to the instruction from Sigma Mammalian Cell Lysis Kit. The protein concentration was quantified using BCA method (Sigma Pte Ltd). The protein lysate was separated using 4-12% bis-tris SDS-PAGE gel (Invitrogen Pte Ltd) and was transferred onto PVDF membrane (BioRad Pte Ltd). The membrane was probed separately using primary antibody specific for acetylated H3, acetylated H4 or acetylated H2A (Upstate Pte Ltd). The detection antibody, goat anti rabbit antibody conjugated with Horse radish peroxidase (HRP) was used according to the manufacturer instruction (Pierce Pte Ltd). After removing the detection antibody from the membrane, an enhanced chemiluminescent substrate for detection of HRP (Pierce Pte Ltd) was added onto the membrane. […] The density of each band observed on the developed film could be analysed using UVP Bioimaging software (UVP, Inc, Upland, Calif.). […]

[5] = system: MDA-MB231 human breast cancer cell line; assay: Cell-based proliferation assay for determination of GI50 values, MDA-MB231; conditions: MDA-MB231 cells, 96 h treatment, cyquant assay
Description: (§4) Human colon cancer cell lines (Colo205) and human breast cancer cell lines (MDA-MB435 and MDA-MB231) were obtained from ATCC. Colo205 cells were cultivated in RPMI 1640 containing 2 mM L-Glutamine, 5% FBS, 1.0 mM Na Pyruvate. MDA-MB231 cells were cultivated in RPMI 1640 containing 2 mM L-glutamine, 5% FBS. MDA-MB435 cells were cultivated in DMEM containing 2 mM L-Glutamine, 5% FBS. Colo205 cells were seeded in 96-wells plate at 5000 cells per well respectively. MDA-MB435 and MDA-MB231 cells were seeded in 96-wells plate at 6000 cells per well. The plates were incubated at 37° C., 5% CO2, for 24 h. Cells were treated with compounds at various concentrations for 96 h. Cell growth was then monitored using cyquant cell proliferation assay (Invitrogen Pte Ltd). Dose response curves were plotted to determine GI50 values for the compounds using XL-fit (ID Business Solution, Emeryville, Calif.).

[6] = system: acetylated histone H4 in Colo205 cells; assay: Histone acetylation assay (western blot), histone H4; format: cell-based, human; set-up: key: “Active” means accumulation of acetylated histone was observed when compared with control (without compound); conditions: Colo205 cells, 0.1, 1, 5 and 10 μM, 24 h
Description: (§5) A hallmark of histone deacetylase (HDAC) inhibition is the increase in the acetylation level of histones. Histone acetylation, including H3, H4, H2A and H2B can be detected by immuno-blotting (western-blot). Colo205 cells, approximately 1.5×10^6 cells/10 cm dish, were seeded in the previously described medium, cultivated for 24 h and subsequently treated with HDAC inhibitory agents at 0.1, 1, 5 and 10 μM final concentration. After 24 h, cells were harvested and lysed according to the instruction from Sigma Mammalian Cell Lysis Kit. The protein concentration was quantified using BCA method (Sigma Pte Ltd). The protein lysate was separated using 4-12% bis-tris SDS-PAGE gel (Invitrogen Pte Ltd) and was transferred onto PVDF membrane (BioRad Pte Ltd). The membrane was probed separately using primary antibody specific for acetylated H3, acetylated H4 or acetylated H2A (Upstate Pte Ltd). The detection antibody, goat anti rabbit antibody conjugated with Horse radish peroxidase (HRP) was used according to the manufacturer instruction (Pierce Pte Ltd). After removing the detection antibody from the membrane, an enhanced chemiluminescent substrate for detection of HRP (Pierce Pte Ltd) was added onto the membrane. After removing the substrate, the membrane was exposed to an X-ray film (Kodak) for 1 sec-20 mins. The X-ray film was developed using the X-ray film processor. The density of each band observed on the developed film could be analysed using UVP Bioimaging software (UVP, Inc, Upland, Calif.). The values were then normalized against the density of actin in the corresponding samples to obtain the expression of the protein.

[7] = system: MDA-MB435 human breast cancer cell line; assay: Cell-based proliferation assay for determination of GI50 values, MDA-MB435; conditions: MDA-MB435 cells, 96 h treatment, cyquant assay
Description: as §4

[8] = system: Colo205 human colon cancer cell line; assay: Cell-based proliferation assay for determination of GI50 values, Colo205; conditions: COLO 205, Colo205 cells, 96 h treatment, cyquant assay, read-out: Colo 205 Gl50
Description: as §4

[9] = system: acetylated histone H2B in Colo205 cells; assay: Histone acetylation assay (western blot), histone H2B; format: cell-based, human; set-up: key: “Active” means accumulation of acetylated histone was observed when compared with control (without compound); conditions: Colo205 cells, 0.1, 1, 5 and 10 μM, 24 h
Description: as §3

[10] = system: acetylated histone H3 in Colo205 cells; assay: Histone acetylation assay (western blot), histone H3; format: cell-based, human; set-up: key: “Active” means accumulation of acetylated histone was observed when compared with control (without compound); conditions: Colo205 cells, 0.1, 1, 5 and 10 μM, 24 h
Description: as §5

IC50 [1] [nM]	IC50 [3] [nM]	GI50 [8] [nM]	Structure (SMILES)	percentage of late apoptotic cells [2] [%]	Hisotne 2A acetylation [4]	MDA-MB231 Gl50 [5] [µM]	Histone 4 acetylation [6]	MDA-MB435 Gl50 [7] [µM]	Histone 2B acetylation [9]	Histone 3 acetylation [10]
22	1540		Cc1ccc(S(=O)(=O)NC(=O)Nc2cccc(/C=C/C(=O)NO)c2)cc1 [Example 3, N-Hydroxy-3-{3-[3-(4-methylbenzenesulfonyl)ureido]-phenyl}-acrylamide]	84						
210	4	260	O=C(/C=C/c1ccc(CN(CCc2c[nH]c3ccccc23)C(=O)NC(=O)c2ccccc2)cc1)NO [Example 11, 3-(4-{3-Benzoyl-1-[2-(1H-indol-3-yl)-ethyl]-ureidomethyl}phenyl)-N-hydroxy-acrylamide]		Active	0.26	Active	0.62	Active	Active
